{
  "source": "patent US20110207726A1",
  "about": "“Inhibitors of Human Cathepsin L, Cathepsin B, and Cathepsin S” (The Trustees of the University of Pennsylvania, priority 2008, published 2011)",
  "key": {"Human spleen cathepsin S": {"target": "T1, Human spleen cathepsin S (Homo sapiens, UniProt P25774)", "T1 construct": "Human spleen cathepsin S (Calbiochem 219344, 40 ng/mL); purchased Calbiochem 219344; host or cells: human spleen", "T1 sequence (P25774 115-331)": "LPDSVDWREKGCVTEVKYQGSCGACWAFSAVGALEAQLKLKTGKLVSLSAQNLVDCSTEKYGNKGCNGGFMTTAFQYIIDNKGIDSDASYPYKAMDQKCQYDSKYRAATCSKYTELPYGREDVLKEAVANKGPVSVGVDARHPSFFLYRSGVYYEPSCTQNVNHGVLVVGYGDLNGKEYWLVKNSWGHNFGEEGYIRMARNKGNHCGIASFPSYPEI", "assay": "Cathepsin S assay, IC50 determination", "type": "biochemical", "settings": "Tables 2-11; read-out: Cat S", "method_in_brief": "(§1)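 Spleen cathepsin S (40 ng/mL) with 15 microM Z-Phe-Arg-AMC and liver cathepsin B (65 ng/mL) with 15 microM Z-Arg-Arg-AMC, in 20 mM sodium acetate, 1 mM EDTA, 5 mM cysteine, pH 5.5. AMC fluorescence release monitored; IC50 measured in triplicate.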"}, "Human liver cathepsin B": {"target": "T2, Human liver cathepsin B (Homo sapiens, UniProt P07858)", "T2 construct": "Human liver cathepsin B (Calbiochem 219362, 65 ng/mL); purchased Calbiochem 219362; host or cells: human liver", "assay": "Cathepsin B assay, IC50 determination", "type": "biochemical", "settings": "for Selectivity Index (IC50 Cat B)/(IC50 Cat L): Cathepsin B vs cathepsin L", "method_in_brief": "as §1"}, "[1]": {"system": "SARS coronavirus pseudotype", "assay": "microbe, parasite or virus in culture", "type": "cell-based", "settings": "read-out: IC50, SARS-CoV pseudotype entry"}, "[2]": {"system": "Vesicular stomatitis virus (VSV)", "assay": "microbe, parasite or virus in culture", "type": "cell-based", "settings": "read-out: IC50, VSV entry (control)"}, "human liver cathepsin L [3]": {"target": "T3, human liver cathepsin L (Homo sapiens, UniProt P07711)", "T3 construct": "8.7 ng/mL human liver cathepsin L (Calbiochem 219402); purchased Calbiochem 219402; host or cells: human liver", "T3 sequence (P07711 114-288 limits assumed)": "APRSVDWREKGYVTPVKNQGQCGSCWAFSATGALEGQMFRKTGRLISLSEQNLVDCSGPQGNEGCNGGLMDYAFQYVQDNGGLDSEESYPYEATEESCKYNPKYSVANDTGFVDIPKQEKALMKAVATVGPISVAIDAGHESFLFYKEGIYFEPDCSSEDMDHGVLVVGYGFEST", "T3 sequence (P07711 292-333 limits assumed)": "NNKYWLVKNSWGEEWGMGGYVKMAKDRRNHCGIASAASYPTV", "assay": "Cathepsin L assay, IC50 determination", "type": "biochemical", "method_in_brief": "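Enzyme (300 pM) pre-activated for 30 min in 20 mM sodium acetate, 1 mM EDTA, 5 mM cysteine, pH 5.5, then incubated 1 h at room temperature with 1 microM Z-Phe-Arg-AMC and compound. Fluorescent read-out on a microplate reader; IC50 in triplicate.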"}, "human cathepsin L": {"target": "human cathepsin L (Homo sapiens, UniProt P07711)", "sequence (P07711 114-288 limits assumed)": "as the sequence (P07711 114-288 limits assumed) above", "sequence (P07711 292-333 limits assumed)": "as the sequence (P07711 292-333 limits assumed) above", "assay": "Preincubation studies, cathepsin L", "type": "biochemical", "set-up": "8.7 ng/mL human liver cathepsin L (Calbiochem 219402); purchased Calbiochem 219402; host or cells: human liver", "settings": "preincubation with enzyme 4 h; read-out: IC50 against human cathepsin L after 4 hours preincubation", "description": "To establish the time-dependent mechanism of inhibition, enzyme and inhibitor were preincubated for various time points in a 96-well microplate prior to the addition of substrate to initiate the enzymatic reaction. 47.5 μL of cathepsin L (18.3 ng/mL) and 47.5 μL of Compound No. 1 at various concentrations in assay buffer were incubated up to 4 hours. Five μL of Z-Phe-Arg-AMC substrate were then added and the plate was monitored for AMC hydrolysis on the Envision fluorescent microplate reader."}, "Ebola virus pseudotype": {"system": "Ebola virus pseudotype", "assay": "microbe, parasite or virus in culture", "type": "cell-based", "settings": "read-out: IC50, Ebola virus pseudotype entry"}, "zebrafish": {"system": "zebrafish", "assay": "Zebrafish live organism toxicity assay", "settings": "at 100 μM"}, "human liver cathepsin L [4]": {"target": "T3, human liver cathepsin L", "assay": "HTS of MLSMR library and confirmatory dose response against cathepsin L", "type": "biochemical", "settings": "10 μM compound", "description": "57,821 compounds from the NIH Molecular Libraries Small Molecule Repository (MLSMR) were screened against human liver cathepsin L. This screen was performed in 384-well Corning 3676 black, low-volume, non-binding surface (NBS)-coated polystyrene plates using a total reaction volume of 10 μL per well. Final well concentrations were: 10 μM compound (2% DMSO), 300 pM (8.7 ng/mL) human liver cathepsin L, 1 μM Z-FR-AMC substrate, and 20 mM sodium acetate buffer containing 1 mM EDTA and […], pH 5.5. Cathepsin L was activated in the assay buffer for 30 minutes prior to dispensing into wells. Assay plates were incubated at room temperature for one how and the fluorescence intensity of each well was read with a PerkinElmer Envision plate reader (Ex: 355 nm, Em: 460 nm) to measure hydrolysis of the AMC substrate.\nLibrary samples containing 2,5-disubstituted oxadiazoles were identified as potent hits in a high throughput screen of the NIH Molecular Libraries Small Molecule Repository directed at discovering inhibitors of cathepsin L (Table I). […] Analyses by LC-MS of original library samples indicated the presence of a number of impurities, in addition to the oxadiazoles. Synthesis and bioassay of the probable impurities led to the identification of a thiocarbazate that likely originated via ring opening of the oxadiazole. […]"}},
  "note": "Where two headings read alike, the source gives them in different places.",
  "data": [
    {"smiles": "CC(C)(C)OC(=O)N[C@@H](Cc1c[nH]c2ccccc12)C(=O)NNC(=O)OCC(=O)N1CCCc2ccccc21", "note": "[Compound No. 96]", "values": [
      {"measurement": "IC50", "setting": "Human spleen cathepsin S", "result": 25, "unit": "nM"},
      {"measurement": "Selectivity Index (IC50 Cat B)/(IC50 Cat L)", "setting": "Human liver cathepsin B; no preincubation", "result": 724.6},
      {"measurement": "Selectivity Index (IC50 Cat B)/(IC50 Cat L)", "setting": "Human liver cathepsin B; no preincubation, listed as SID 46493575", "result": 725},
      {"measurement": "IC50", "setting": "Human liver cathepsin B; Table 18, Cathepsin B, human liver, no preincubation, read-out: IC50", "result": "5070 ± 883", "unit": "nM"},
      {"measurement": "IC50", "setting": "Human liver cathepsin B; Tables 2-11, read-out: Cat B", "result": 10100, "unit": "nM"},
      {"measurement": "IC50", "setting": "[1]; Severe acute respiratory syndrome coronavirus, HEK-293T", "result": "273 ± 49", "unit": "nM"},
      {"measurement": "IC50", "setting": "[1]", "result": "~200", "unit": "nM"},
      {"measurement": "IC50", "setting": "[2]; Vesicular stomatitis virus", "result": "≥ 10000", "unit": "nM"},
      {"measurement": "IC50", "setting": "[2]", "result": "> 10000", "unit": "nM"},
      {"measurement": "Selectivity Index", "setting": "human liver cathepsin L [3]; Table 18, Cathepsin L", "result": 1.0},
      {"measurement": "IC50", "setting": "human liver cathepsin L [3]; Tables 2-11, read-out: Cat L", "result": 6, "unit": "nM"},
      {"measurement": "IC50", "setting": "human liver cathepsin L [3]; no preincubation of enzyme and inhibitor, read-out: IC50 against cathepsin L (no preincubation)", "result": 6.9, "unit": "nM"},
      {"measurement": "IC50", "setting": "human cathepsin L", "result": 0.4, "unit": "nM"},
      {"measurement": "IC50", "setting": "Ebola virus pseudotype; Zaire ebolavirus, HEK-293T", "result": "193 ± 39", "unit": "nM"},
      {"measurement": "IC50", "setting": "Ebola virus pseudotype", "result": "~200", "unit": "nM"},
      {"measurement": "toxicity to zebrafish", "setting": "zebrafish", "result": "Non-toxic to zebrafish at 100 μM"}
    ]},
    {"smiles": "CC(C)C[C@H](NC(=O)[C@H]1O[C@@H]1C(=O)O)C(=O)NCCCCN=C(N)N", "note": "[E-64]", "values": [
      {"measurement": "HTS identification as cathepsin L inhibitor (in words)", "setting": "human liver cathepsin L [4]", "result": "potent inhibitors of cathepsin L"}
    ]},
    {"smiles": "CC(C)CCNC(=O)[C@H](CC(C)C)NC(=O)[C@H]1O[C@@H]1C(=O)O", "note": "[E-64c]", "values": [
      {"measurement": "HTS identification as cathepsin L inhibitor (in words)", "setting": "human liver cathepsin L [4]", "result": "potent inhibitors of cathepsin L"}
    ]}
  ]
}
